Experimental findings from patent publication US20050054696A1, “Indole compounds and medicinal use thereof” (priority 2001, published 2005) are described below.

For test [1], the target named is T1, recombinant human liver glycogen phosphorylase (HLGPa) (Homo sapiens, UniProt P06737).
T1 construct: made in house; host or cells: Sf9 insect cells (unpurified cell lysate used as enzyme solution)
T1 sequence (P06737 1-847): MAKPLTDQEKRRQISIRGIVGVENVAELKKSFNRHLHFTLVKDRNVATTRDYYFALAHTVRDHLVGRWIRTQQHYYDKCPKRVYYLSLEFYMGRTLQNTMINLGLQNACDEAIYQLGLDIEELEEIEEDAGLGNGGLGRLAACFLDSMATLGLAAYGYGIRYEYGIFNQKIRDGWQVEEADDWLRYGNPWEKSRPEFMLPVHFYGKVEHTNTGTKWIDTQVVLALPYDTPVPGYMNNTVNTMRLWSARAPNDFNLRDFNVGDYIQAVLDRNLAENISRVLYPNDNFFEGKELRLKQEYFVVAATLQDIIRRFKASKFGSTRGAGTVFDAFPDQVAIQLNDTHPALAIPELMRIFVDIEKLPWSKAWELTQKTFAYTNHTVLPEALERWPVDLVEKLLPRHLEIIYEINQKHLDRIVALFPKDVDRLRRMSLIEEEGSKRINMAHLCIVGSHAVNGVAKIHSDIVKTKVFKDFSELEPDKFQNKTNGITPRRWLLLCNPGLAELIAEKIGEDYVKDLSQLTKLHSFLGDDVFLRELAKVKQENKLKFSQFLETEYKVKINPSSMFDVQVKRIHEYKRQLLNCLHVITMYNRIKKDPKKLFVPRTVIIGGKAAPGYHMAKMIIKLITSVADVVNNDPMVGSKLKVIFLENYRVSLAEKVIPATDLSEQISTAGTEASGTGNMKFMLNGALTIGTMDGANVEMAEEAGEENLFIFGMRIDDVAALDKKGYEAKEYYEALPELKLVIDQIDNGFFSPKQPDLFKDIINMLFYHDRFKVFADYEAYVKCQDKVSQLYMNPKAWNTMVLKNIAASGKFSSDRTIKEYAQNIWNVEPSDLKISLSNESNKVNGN
Description: Measurement of liver glycogen phosphorylase activity (enzyme inhibitory activity against HLGPa). Particulars: Sf9 cell lysate expressing recombinant enzyme; reverse reaction (glycogen synthesis from G1-P), phosphate by malachite green, 60 min room temperature. The class given is biochemical. The method in brief:
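Activity was run in the reverse, glycogen-synthesis direction, using Sf9 lysate expressing recombinant human liver glycogen phosphorylase (enzyme solution 80 μg/mL protein, pH 7.0). Substrate solution was Tris pH 7.2 with 1.25 mM glucose-1-phosphate, 2.5 mg/ml glycogen and 7.5 mM glucose, reacted 60 min at room temperature. Released phosphate was measured by malachite green A650, with % inhibition taken against DMSO control and no-enzyme blank.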

Another test has as its system db/db mice. In words: Measurement of plasma glucose concentration in obesity type diabetes model db/db mice. The class given is in vivo. Particulars: Mus musculus, po; plasma glucose 1 and 3 hr after administration, after fasting for 4 hr; significant difference vs solvent group (Dunnett's test); read-out: Minimum effective dose db/db mouse. The method, then: Measurement Method of Plasma Glucose Concentration
Using obesity type diabetes model db/db mice, the effect of the compound (1) of the present invention on glucose concentration in plasma was examined. The glucose concentration in the plasma of db/db mice (10-15 weeks of age) was measured, and the mice were grouped into 5 mice per group such that the average glucose concentration of plasma is leveled. After fasting for 4 hr, the test drug or a solvent (0.5% methyl cellulose) was orally administered to db/db mice, and plasma glucose concentration at 1 and 3 hr after the administration was measured. The hypoglycemic effect of the test drug was evaluated by detecting a significant difference every hour between the solvent administration group and the test drug administration group (Dunnett's test).

The IC50 is the concentration that gives 50% inhibition. For the compound `Cl.N=C(NNC(=O)c1cc2cc(Cl)ccc2[nH]1)c1ccccc1` [Example 6, 5-chloro-1H-indole-2-carboxylic acid 2-(imino-phenyl-methyl)hydrazide hydrochloride], the IC50 in test [1] worked out at 62 nM. In the test with db/db mice, the minimal effective dose was determined as 3 mg/kg.

With `Cc1cccc(C(=N)NNC(=O)c2cc3cc(Cl)ccc3[nH]2)c1` [Example 1-134, 5-chloro-1H-indole-2-carboxylic acid 2-(imino-(m-tolyl)-methyl)hydrazide], the IC50 in test [1] came out at 40 nM. Moreover, in the test with db/db mice, the minimal effective dose was 10 mg/kg.

As to `Cc1ccc(C(=O)NNC(=O)c2cc3cc(Cl)ccc3[nH]2)s1` [Example 1-88, 5-methylthiophene-2-carboxylic acid 2-(5-chloro-1H-indole-2-carbonyl)hydrazide], the IC50 in test [1] was determined as 20 nM. In addition, the minimal effective dose in the test on db/db mice came to 10 mg/kg.

Consider `COc1ccc([C@@H]2NC(=O)N(NC(=O)c3cc4cc(Cl)ccc4[nH]3)C2=O)cc1` [Example 4-19, 5-chloro-1H-indole-2-carboxylic acid ((4S)-2,5-dioxo-4-(4-methoxyphenyl)imidazolidin-1-yl)amide], for which, in test [1], the IC50 worked out at 96 nM. Moreover, in the test on db/db mice, the minimal effective dose amounted to 10 mg/kg.

For `O=C(NN1C(=O)N[C@@H](c2ccccc2)C1=O)c1cc2cc(Cl)ccc2[nH]1` (stereo in doubt) [Example 4, N-(2,4-dioxo-5-phenylimidazolidin-3-yl)-5-chloro-1H-indole-2-carboxamide], the IC50 in test [1] is 85 nM. For the same compound, the minimal effective dose with db/db mice worked out at 10 mg/kg.

For `CS(=O)(=O)O.N=C(NNC(=O)c1cc2cc(Cl)ccc2[nH]1)c1ccccc1` [Example 6-17, 5-chloro-1H-indole-2-carboxylic acid 2-(imino-phenyl-methyl)hydrazide methanesulfonate], the IC50 in test [1] was 80 nM. The minimal effective dose in the test on db/db mice turned out to be 3 mg/kg.

`O=C(NNC(=O)c1cc2cc(Cl)ccc2[nH]1)c1c[nH]cn1` [Example 1-81, 1H-imidazole-4-carboxylic acid 2-(5-chloro-1H-indole-2-carbonyl)hydrazide]: the IC50 in test [1] was found to be 28 nM. For the same compound, the minimal effective dose with db/db mice was 10 mg/kg.

Regarding `N=C(NNC(=O)c1cc2cc(Cl)ccc2[nH]1)c1ccccc1Cl.O=C(O)/C=C\C(=O)O` [Example 6-18, 5-chloro-1H-indole-2-carboxylic acid 2-((2-chlorophenyl)-imino-methyl)hydrazide butenedioic acid salt], the IC50 in test [1] is 49 nM. For the same compound, in the test with db/db mice, the minimal effective dose came out at 3 mg/kg.

`O=C(Nn1c(=O)[nH]c2cccc(Cl)c2c1=O)c1cc2cc(Cl)ccc2[nH]1` [Example 2-17, 5-chloro-1H-indole-2-carboxylic acid (5-chloro-1,2,3,4-tetrahydro-2,4-dioxoquinazolin-3-yl)amide]: in test [1], the IC50 came out at 37 nM. The minimal effective dose in the test on db/db mice was 10 mg/kg.

In the case of `Cl.N=C(NNC(=O)c1cc2cc(Cl)ccc2[nH]1)c1ccccc1F` [Example 6-19, 5-chloro-1H-indole-2-carboxylic acid 2-((2-fluorophenyl)-imino-methyl)hydrazide hydrochloride], in test [1], the IC50 was 53 nM. The minimal effective dose in the test on db/db mice was 3 mg/kg.

With `Nc1ccccc1C(=O)NNC(=O)c1cc2cc(Cl)ccc2[nH]1` [Example 1-2, 2-Aminobenzoic acid 2-(5-chloro-1H-indole-2-carbonyl)hydrazide], the IC50 in test [1] was found to be 13 nM. The minimal effective dose in the test on db/db mice stood at 10 mg/kg.

For `Cc1ccc2[nH]c(C(=O)Nn3c(=O)[nH]c4ccccc4c3=O)cc2c1` [Example 2-23, 5-methyl-1H-indole-2-carboxylic acid (1,2,3,4-tetrahydro-2,4-dioxoquinazolin-3-yl)amide], the IC50 in test [1] was found to be 24 nM. Further, the minimal effective dose with db/db mice stood at 3 mg/kg.

Turning to `O=C(NN1C(=O)N[C@H](c2ccccc2)C1=O)c1cc2cc(Cl)ccc2[nH]1` [Example 4-6, 5-chloro-1H-indole-2-carboxylic acid ((4R)-2,5-dioxo-4-phenylimidazolidin-1-yl)amide], in test [1], the IC50 was 65 nM. For the same compound, in the test with db/db mice, the minimal effective dose stood at 10 mg/kg.
